Source: article PMC9153040 (Blood Advances, 2021)

Target: T1, ALAS2 (recombinant erythroid-specific 5-aminolevulinate synthase; hsALAS2 in transgenic MEL cells) (Homo sapiens, UniProt P22557)
T1 sequence (P22557 50-587): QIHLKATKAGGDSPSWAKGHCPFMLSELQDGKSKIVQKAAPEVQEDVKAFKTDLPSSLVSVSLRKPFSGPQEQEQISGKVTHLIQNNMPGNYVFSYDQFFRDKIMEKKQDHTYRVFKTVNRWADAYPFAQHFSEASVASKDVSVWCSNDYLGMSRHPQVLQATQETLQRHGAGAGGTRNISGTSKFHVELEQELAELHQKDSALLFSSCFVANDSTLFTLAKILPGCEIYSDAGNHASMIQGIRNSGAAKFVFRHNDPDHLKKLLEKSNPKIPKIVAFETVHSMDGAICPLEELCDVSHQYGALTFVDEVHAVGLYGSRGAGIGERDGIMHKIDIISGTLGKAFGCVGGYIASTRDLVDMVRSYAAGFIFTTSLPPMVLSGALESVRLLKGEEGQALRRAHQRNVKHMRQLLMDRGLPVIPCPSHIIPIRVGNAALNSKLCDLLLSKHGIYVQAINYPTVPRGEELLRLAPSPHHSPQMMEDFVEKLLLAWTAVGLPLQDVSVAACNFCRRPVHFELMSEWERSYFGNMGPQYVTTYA
Assay: discontinuous colorimetric assay of ALA
Type: biochemical

C=C(CC(=O)SCCNC(=O)CCNC(=O)[C@H](O)C(C)(C)COP(=O)(O)OP(=O)(O)OC[C@H]1O[C@@H](n2cnc3c(N)ncnc32)[C@H](O)[C@@H]1OP(=O)(O)O)C(=O)O [itaconyl-CoA]
Ki: 100 ± 20 µM
